Source: PMC6308944, “Anti-Candida albicans Activity of Thiazolylhydrazone Derivatives in Invertebrate and Murine Models” (Journal of Fungi, 2018)
Values after ≈ are worked out from the molar mass of the structure shown.

Columns and labels:
[1] = test system: Candida albicans clinical isolates; assay: MIC, broth microdilution, clinical isolates
[2] = test system: Candida parapsilosis isolates; assay: MIC, broth microdilution, clinical isolates
[3] = test system: Candida glabrata clinical isolates; assay: MIC, broth microdilution, clinical isolates
[4] = test system: Cryptococcus neoformans clinical isolates; assay: MIC, broth microdilution, clinical isolates
C. albicans (DAY-185) = assay: MIC, broth microdilution (CLSI M27-A3), reference isolate; details: Candida albicans, 48 h
C. albicans (CAN14) = assay: as above; details: Candida albicans
C. krusei (ATCC6258) = assay: as above; details: Pichia kudriavzevii
C. glabrata (ATCC90030) = assay: as above; details: Nakaseomyces glabratus
[5] = test system: C. parapsilosis (ATCC22019); assay: as above; details: Lodderomyces parapsilosis
[6] = test system: C. tropicalis (ATCC13803); assay: as above; details: Candida tropicalis
C. dublinensis (MYA-646) = assay: as above; details: Candida dubliniensis
C. neoformans (H99) = assay: as above; details: Cryptococcus neoformans

Compound: C[C@@H]1[C@H](O)[C@@H](C)/C=C/C=C/C=C/C=C/C=C/C=C/C=C/[C@H](O[C@@H]2O[C@H](C)[C@@H](O)[C@H](N)[C@@H]2O)C[C@@H]2O[C@](O)(C[C@@H](O)C[C@@H](O)[C@H](O)CC[C@@H](O)C[C@@H](O)CC(=O)O[C@H]1C)C[C@H](O)[C@H]2C(=O)O [Amphotericin B]
- MIC50 ([1]; Candida albicans): 0.25 µg/mL (≈ 0.271 µM)
- MIC90 ([1]; Candida albicans): 0.25 µg/mL (≈ 0.271 µM)
- MIC ([1]; Candida albicans, C. albicans clinical isolate 1): 0.25 µg/mL (≈ 0.271 µM)
- MIC ([1]; Candida albicans, C. albicans clinical isolate 02A): 0.25 µg/mL (≈ 0.271 µM)
- MIC ([1]; Candida albicans, C. albicans clinical isolate 02B): 0.25 µg/mL (≈ 0.271 µM)
- MIC ([1]; Candida albicans, C. albicans clinical isolate 6): 0.5 µg/mL (≈ 0.541 µM)
- MIC ([1]; Candida albicans, C. albicans clinical isolate 7): 0.125 µg/mL (≈ 0.135 µM)
- MIC ([1]; Candida albicans, C. albicans clinical isolate 9): 0.25 µg/mL (≈ 0.271 µM)
- MIC ([1]; Candida albicans, C. albicans clinical isolate 10): 0.25 µg/mL (≈ 0.271 µM)
- MIC ([1]; Candida albicans, C. albicans clinical isolate 11): 0.125 µg/mL (≈ 0.135 µM)
- MIC ([1]; Candida albicans, C. albicans clinical isolate 13): 0.125 µg/mL (≈ 0.135 µM)
- MIC90 ([1]; nine C. albicans clinical isolates): 0.25 µg/mL (≈ 0.271 µM)
- MIC90 ([2]; C. parapsilosis isolates): 0.5 µg/mL (≈ 0.541 µM)
- MIC50 ([2]; Lodderomyces parapsilosis): 0.25 µg/mL (≈ 0.271 µM)
- MIC90 ([2]; Lodderomyces parapsilosis): 0.5 µg/mL (≈ 0.541 µM)
- MIC ([2]; Lodderomyces parapsilosis, C. parapsilosis isolate 6901): 0.5 µg/mL (≈ 0.541 µM)
- MIC ([2]; Lodderomyces parapsilosis, C. parapsilosis isolate 6917): 0.25 µg/mL (≈ 0.271 µM)
- MIC ([2]; Lodderomyces parapsilosis, C. parapsilosis isolate 6933): 0.5 µg/mL (≈ 0.541 µM)
- MIC ([2]; Lodderomyces parapsilosis, C. parapsilosis isolate 7449): 0.5 µg/mL (≈ 0.541 µM)
- MIC ([2]; Lodderomyces parapsilosis, C. parapsilosis isolate 7585): 0.25 µg/mL (≈ 0.271 µM)
- MIC ([2]; Lodderomyces parapsilosis, C. parapsilosis isolate 7652): 0.25 µg/mL (≈ 0.271 µM)
- MIC ([2]; Lodderomyces parapsilosis, C. parapsilosis isolate 7839): 0.5 µg/mL (≈ 0.541 µM)
- MIC ([2]; Lodderomyces parapsilosis, C. parapsilosis isolate 7970A): 0.25 µg/mL (≈ 0.271 µM)
- MIC ([2]; Lodderomyces parapsilosis, C. parapsilosis isolate 8044): 0.5 µg/mL (≈ 0.541 µM)
- MIC ([2]; Lodderomyces parapsilosis, C. parapsilosis isolate 8662): 0.25 µg/mL (≈ 0.271 µM)
- MIC50 ([3]; Nakaseomyces glabratus): 0.5 µg/mL (≈ 0.541 µM)
- MIC90 ([3]; Nakaseomyces glabratus): 1 µg/mL (≈ 1.08 µM)
- MIC ([3]; Nakaseomyces glabratus, C. glabrata clinical isolate 6922): 0.5 µg/mL (≈ 0.541 µM)
- MIC ([3]; Nakaseomyces glabratus, C. glabrata clinical isolate 6927): 1 µg/mL (≈ 1.08 µM)
- MIC ([3]; Nakaseomyces glabratus, C. glabrata clinical isolate 6931): 0.5 µg/mL (≈ 0.541 µM)
- MIC ([3]; Nakaseomyces glabratus, C. glabrata clinical isolate 6932): 0.5 µg/mL (≈ 0.541 µM)
- MIC ([3]; Nakaseomyces glabratus, C. glabrata clinical isolate 6943): 1 µg/mL (≈ 1.08 µM)
- MIC ([3]; Nakaseomyces glabratus, C. glabrata clinical isolate 7110): 0.5 µg/mL (≈ 0.541 µM)
- MIC ([3]; Nakaseomyces glabratus, C. glabrata clinical isolate 7221): 0.5 µg/mL (≈ 0.541 µM)
- MIC ([3]; Nakaseomyces glabratus, C. glabrata clinical isolate 7255): 1 µg/mL (≈ 1.08 µM)
- MIC ([3]; Nakaseomyces glabratus, C. glabrata clinical isolate 7815): 0.5 µg/mL (≈ 0.541 µM)
- MIC ([3]; Nakaseomyces glabratus, C. glabrata clinical isolate 7871): 1 µg/mL (≈ 1.08 µM)
- susceptibility of isolates according to CLSI M27-S4 ([3]; all C. glabrata clinical isolates): sensitive
- MIC50 [4]: 0.125 µg/mL (≈ 0.135 µM)
- MIC90 [4]: 0.25 µg/mL (≈ 0.271 µM)
- MIC ([4]; C. neoformans clinical isolate 27JF): 0.25 µg/mL (≈ 0.271 µM)
- MIC ([4]; C. neoformans clinical isolate 28JF): 0.125 µg/mL (≈ 0.135 µM)
- MIC ([4]; C. neoformans clinical isolate 93): 0.25 µg/mL (≈ 0.271 µM)
- MIC ([4]; C. neoformans clinical isolate 94): 0.25 µg/mL (≈ 0.271 µM)
- MIC ([4]; C. neoformans clinical isolate 646B): 0.125 µg/mL (≈ 0.135 µM)
- MIC ([4]; C. neoformans clinical isolate 975): 0.125 µg/mL (≈ 0.135 µM)
- MIC ([4]; C. neoformans clinical isolate 9220): 0.125 µg/mL (≈ 0.135 µM)
- MIC ([4]; C. neoformans clinical isolate 9273): 0.125 µg/mL (≈ 0.135 µM)
- MIC ([4]; C. neoformans clinical isolate 10131): 0.125 µg/mL (≈ 0.135 µM)
- MIC ([4]; C. neoformans clinical isolate 10211): 0.125 µg/mL (≈ 0.135 µM)
- MIC ([4]; C. neoformans clinical isolate 10264): 0.125 µg/mL (≈ 0.135 µM)
- MIC ([4]; C. neoformans clinical isolate 10335): 0.125 µg/mL (≈ 0.135 µM)
- MIC ([4]; C. neoformans clinical isolate 10379): 0.125 µg/mL (≈ 0.135 µM)
- MIC ([4]; C. neoformans clinical isolate 41292): 0.125 µg/mL (≈ 0.135 µM)
- MIC ([4]; C. neoformans clinical isolate 41295): 0.125 µg/mL (≈ 0.135 µM)
- MIC ([4]; C. neoformans clinical isolate 41296): 1 µg/mL (≈ 1.08 µM)
- MIC ([4]; C. neoformans clinical isolate 41297): 0.125 µg/mL (≈ 0.135 µM)
- MIC ([4]; C. neoformans clinical isolate 41298): 0.125 µg/mL (≈ 0.135 µM)
- MIC ([4]; C. neoformans clinical isolate 41299): 0.125 µg/mL (≈ 0.135 µM)
- MIC ([4]; C. neoformans clinical isolate 90896): 0.125 µg/mL (≈ 0.135 µM)
- MIC ([4]; C. neoformans clinical isolate 92868): 0.25 µg/mL (≈ 0.271 µM)
- MIC ([4]; C. neoformans clinical isolate BF113): 1 µg/mL (≈ 1.08 µM)
- MIC ([4]; C. neoformans clinical isolate BF114): < 0.0625 µg/mL
- MIC ([4]; C. neoformans clinical isolate C31): 0.125 µg/mL (≈ 0.135 µM)
- MIC ([4]; C. neoformans clinical isolate F10): 0.25 µg/mL (≈ 0.271 µM)
- MIC ([4]; C. neoformans clinical isolate RN01): 0.125 µg/mL (≈ 0.135 µM)
- MIC ([4]; C. neoformans clinical isolate WP): 1 µg/mL (≈ 1.08 µM)
- MIC (C. albicans (DAY-185)): 1 µg/mL (≈ 1.08 µM)
- MIC (C. albicans (CAN14)): 1 µg/mL (≈ 1.08 µM)
- MIC (C. krusei (ATCC6258)): 8 µg/mL (≈ 8.66 µM)
- MIC (C. glabrata (ATCC90030)): 2 µg/mL (≈ 2.16 µM)
- MIC [5]: 2 µg/mL (≈ 2.16 µM)
- MIC [6]: 4 µg/mL (≈ 4.33 µM)
- MIC (C. dublinensis (MYA-646)): 1 µg/mL (≈ 1.08 µM)
- MIC (C. neoformans (H99)): 4 µg/mL (≈ 4.33 µM)
